Reference: publication PMC12030426, “Translational Pharmacokinetic-Pharmacodynamic Modeling of a Novel Oral Dihydroorotate Dehydrogenase (DHODH) Inhibitor, HOSU-53 (JBZ-001)” (Pharmaceutics, 2025)
“Also recorded” adds a separate entry of the source.

What was measured:
human DHODH = human DHODH (Homo sapiens, UniProt Q02127); parameters: method as in PMID 38646934; conditions: cell-free; read-out: IC50 in cell-free human DHODH inhibition assay; cited from earlier work
hERG ion channel = test system: hERG ion channel; parameters: method as in PMID 38646934; conditions: cited from earlier work
PXR = test system: PXR; parameters: method as in PMID 38646934; conditions: cited from earlier work
[1] = in vitro hepatic stability assay scaled by IVIVE, rat; format: in vitro ADME; conditions: scaled from in vitro hepatic stability assay
Description: (§1) PBPK models were developed using PK-Sim v11.0 in rats and beagle dogs, and each was used to predict data in the other species, including mice. A base model was parameterized using lipophilicity, plasma protein binding, thermodynamic solubility, and pKa measured from in vitro studies. Half-life of HOSU-53 measured in beagle cryo-preserved hepatocytes was used along with hepatocyte incubation density within the In Vitro to In Vivo Extrapolation (IVIVE) tools in PK-Sim to estimate metabolic clearance in vivo [25]. Renal clearance of unbound plasma HOSU-53 was assumed to be driven solely by glomerular filtration rate (GFR). Various methods were used to calculate partition coefficients and cellular permeabilities in PK-Sim. PK predictions generated for each combination of calculation methods were compared to the mean observed IV profile, and the methods that best matched the observed data were selected. Ultimately, partition coefficients were calculated using the Rodgers and Rowland method, and cellular permeabilities were calculated using the charge-dependent Schmitt method. PK following oral administration of HOSU-53 was used to identify parameter values for intestinal permeability for the sodium and lysine salt forms administered in deionized (DI) water. […]

PPARγ = conditions: cited from earlier work
[2] = parameters: method as in PMID 38646934; conditions: cited from earlier work
[3] = test system: MOLM-13 cell line–derived xenograft; parameters: method as in PMID 38646934; conditions: combined with other front-line therapies; cited from earlier work
pKa = format: physicochemical; conditions: experimental data
Description: as §1

population PK model, dog = format: in vivo
Description: (§2) Population PK analyses were performed using nonlinear mixed-effects modeling implemented in Monolix software (Monolix Suite 2024R1, Antony, France). This approach utilizes the stochastic approximation of the expectation-maximization (SAEM) algorithm coupled with a Markov chain Monte Carlo (MCMC) method to optimize the likelihood. One- and two-compartment PK models incorporating zero- and first-order absorption with linear elimination were evaluated. Interindividual variability (IIV) in PK parameters was assumed to follow a log-normal distribution, except for bioavailability (F), which was modeled using a logit-normal distribution. An exponential model was applied, as described by the following equation: θi=θp×e^ηi where θi is the model predicted PK parameter for the ith animal, θp is the typical population PK parameter, and ηi is the random variable of normal distribution with mean zero and variance ω^2 .
(§3) Residual or random unexplained variability was evaluated using additive, proportional, and combined error models. For each model, several criteria were assessed, including the objective function value (OFV), Akaike Information Criterion (AIC), Bayesian Information Criterion (BIC), corrected Bayesian Information Criterion (BICc), and the precision of parameter estimates, expressed as residual standard errors.
During the development of the PK model for dogs, a two-compartment model was first constructed using IV data alone. […] This approach provided reasonable estimates for F and Ka, with acceptable RSE values (Table 3). […] The GOF plots for the final PK models of dog and mouse are presented in Figure 1 and Supplementary Figure S1, respectively.

[4] = parameters: method as in PMID 38646934; conditions: cited from earlier work; remark: listed apart in the source
thermodynamic solubility = format: physicochemical; conditions: pH 6.5; experimental data
Description: as §1

[5] = noncompartmental PK in dogs; format: in vivo
From the text: (§4) Non-clinical PK of HOSU-53 has been studied and analyzed after single and multiple doses with noncompartmental analysis (NCA). […] F was similar between the two species, with mean values of approximately 60% and 50% in rats and dogs, respectively.

plasma DHO [6] = experiment: population PD model (indirect turnover, plasma DHO), mouse; format: in vivo
Description: (§5) To develop the PK/PD models, a sequential approach was tested for dog data, involving the initial construction of the PK model, fixing the PK parameters with population estimated thetas and eta variances, and then estimating the PD parameters. For mouse and rat data, a simultaneous approach was employed, estimating PK and PD parameters concurrently, assuming log-normal distribution for both. To account for the delay in PD response that results from the inhibition of DHODH, the factor controlling the dissipation of the response, various modeling approaches were employed. One approach involved using an effect compartment model with an equilibrium half-life parameter ( ke0 ) to characterize the delay,
(§6) The final PK/PD model for both species was an indirect turnover model with degradation inhibition. The parameters for the final dog and mouse PK/PD models are presented in Table 3 and Supplementary Table S3, respectively.

[7] = noncompartmental PK in mice; format: in vivo
[8] = noncompartmental PK in rats; format: in vivo
From the text: as §4

[9] = population PK model, mouse; format: in vivo
Description: as §2, §3
The final structural PK models for both mouse and dog data were two-compartment disposition models with first-order absorption and linear elimination. We ultimately chose to exclude rat data from the population modeling effort, as described below in this section. The parameters for the final dog and mouse PK models are presented in Table 3 and Supplementary Table S3, respectively. All parameters were estimated with good precision, as indicated by the %RSE of the estimates. Proportional and combined error models were selected for the mouse and dog data, respectively.

[10] = 28-day GLP repeat-dose toxicity study in dogs
Description: The PK/PD characterization of HOSU-53 in beagle dogs was conducted across several studies. An initial single-dose PK/PD evaluation was carried out with male dogs receiving HOSU-53 (10 mg/kg, PO; 3 mg/kg, IV) in 40% HPBCD. Then, repeat-dose PK/PD over 7 days was assessed in male and female dogs with doses of 0.3, 1, and 3 mg/kg (PO, QD) in deionized water. […] Additional GLP toxicokinetic and toxicodynamic evaluations were performed, where dogs were dosed at 0.2, 0.6, and 1 mg/kg (PO, QD) for 28 days followed by a 14-day recovery period (Details in Supplementary Table S1).

plasma DHO [11] = experiment: population PD model (indirect turnover, plasma DHO), dog; format: in vivo
Description: as §5, §6

[12] = 28-day GLP repeat-dose toxicity study in rats
Description: A series of PK and PD studies was carried out using a range of single and repeat dosing regimens in rats, exploring variations in formulation and dosing schedules. The initial experiment evaluated the PK/PD profile following a single dose of 10 mg/kg PO and 3 mg/kg IV using 40% HPBCD. Building on the single-dose results, repeat dosing was investigated at 1 (both sexes), 3 (both sexes), 6 (females), and 10 (males) mg/kg (PO, QD) and 30 (both sexes) mg/kg (PO, BIWK) regimen in 40% HPBCD formulation. To extend the findings into a disease-relevant context, repeat dosing was evaluated for 14 days in a MOLM-13 xenograft model in the Sprague Dawley Rag2−/− Il2rg−/− (SRG) male rats, where doses of 1, 3, and 10 mg/kg (PO, QD) were administered, alongside 30 mg/kg biweekly (PO, BIWK).

plasma DHO [13] = experiment: correlation of plasma DHO exposure with efficacy, tolerability and toxicity in repeat dose studies; format: in vivo, rats, dogs, and tumor-bearing mice; conditions: based on preclinical experiments
Description: These GI toxicities are consistent with the high proliferative demand of intestinal epithelial cells, which rely on pyrimidine availability for DNA synthesis and repair. The No Observed Adverse Effect Levels (NOAELs) from the rat and dog GLP toxicity studies were then determined to be one dose level lower, which are 2.5 mg/kg (PO, QD) and 0.6 mg/kg (PO, QD), respectively. Based on repeat dose studies in rats, dogs, and tumor-bearing mice, efficacy, tolerability, and toxicity can be correlated with levels of the PD biomarker DHO in plasma.

human DHODH, sequence (Q02127 whole entry): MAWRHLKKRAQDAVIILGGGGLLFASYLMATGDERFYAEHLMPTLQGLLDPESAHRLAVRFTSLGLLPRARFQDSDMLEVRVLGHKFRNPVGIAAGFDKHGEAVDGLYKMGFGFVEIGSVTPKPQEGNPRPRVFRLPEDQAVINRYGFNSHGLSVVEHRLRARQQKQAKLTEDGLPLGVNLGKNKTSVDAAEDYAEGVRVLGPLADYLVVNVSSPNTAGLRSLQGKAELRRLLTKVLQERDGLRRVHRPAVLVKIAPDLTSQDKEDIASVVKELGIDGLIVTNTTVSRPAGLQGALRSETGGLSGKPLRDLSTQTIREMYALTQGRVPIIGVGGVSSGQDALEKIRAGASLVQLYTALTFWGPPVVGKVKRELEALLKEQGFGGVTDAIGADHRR

## CCCCOc1cccc(-c2ccc(-c3cc(C(=O)O)c4cc(F)ccc4n3)cc2)c1 [HOSU-53]
Human DHODH
  IC50: 0.00095 µM
hERG ion channel
  hERG ion channel inhibition: does not induce PXR or inhibit the hERG ion channel
PXR
  PXR induction: does not induce PXR
[1]
  Specific Clearance: 7.29 min⁻¹
PPARγ
  PPARγ agonism potency, fold less than potency against MOLM-13 AML cells in cell viability assays: 1500 ×
[2]
  Ames mutagenicity: negative
[3]
  survival: prolonged survival benefits
pKa
  pKa (Acid): 3.05 (Acid)
  pKa (Base): 1.19 (Base)
Population PK model, dog; bootstrap point estimate
  F (%): 0.67 fraction
  Ka: 1.55 h⁻¹
Population PK model, dog; model estimate (RSE%)
  F (%): 0.67 (2.8) %
  Ka: 1.53 (12.6) /h
Population PK model, dog; model estimate, fixed
  CL/F: 150 Fix mL/h
  Q: 400 Fix mL/h
  V1: 980 Fix mL
  V2: 490 Fix mL
[4]
  micronucleus assay: negative
Thermodynamic solubility
  Solubility: 18.8 μg/mL (pH 6.5)
[5]; mean, NCA
  F: ~50%
[5]; repeated oral dosing, dose range 0.3–3 mg/kg
  dose proportionality of plasma levels: dose-proportional manner
Plasma DHO [6]; bootstrap point estimate
  IC50: 1.61 µM
  Kout: 127 h⁻¹
  gamma: 1.63
Plasma DHO [6]; model estimate (RSE %)
  Kout: 155 (12.7) /h
  gamma: 1.71 (0.1)
Plasma DHO [6]; plasma HOSU-53 concentration, inhibition of DHO degradation, model estimate (RSE %)
  IC50: 1.55 µM
[7]; NCA
  mean T1/2: 30 h
[7]; repeated oral dosing, higher doses, dose range 4–30 mg/kg
  dose proportionality of plasma levels: less-than-dose-proportional manner
[7]; single IV 3 mg/kg and oral 10 mg/kg, NCA
  F: 86%
[8]; mean, NCA
  F: approximately 60%
[8]; repeated oral dosing, higher doses, dose range 3–10 mg/kg
  dose proportionality of plasma levels: less-than-dose-proportional manner
[9]; bootstrap point estimate
  CL/F: 0.07 mL/h
  F (%): 54%
  Ka: 1.2 h⁻¹
  Q: 1.6 mL/h
  V1: 1.3 mL
  V2: 1.1 mL
[9]; model estimate (RSE %)
  CL/F: 0.07 (5.0) mL/h
  F (%): 0.53 (0.02) %
  Ka: 1.0 (0.02) /h
  Q: 1.6 (1.7) mL/h
  V1: 1.2 (8.7) mL
  V2: 1.2 (5.3) mL
[10]; all dogs, 28-day GLP study
  survival: survived until scheduled euthanasia
[10]; dogs
  HNSTD or STD10: 0.6 mg/kg/day
[10]; dogs, PO, QD, 28-day GLP
  NOAEL: 0.6 mg/kg
[10]; dogs, preclinical toxicokinetic data
  maximum DHO concentration with no toxicity: ~ 5850 ng/mL
[10]; female dogs, 1 mg/kg PO, QD, 1–2 h postdosing, weeks 1 and 4
  heart rate and RR interval: lower heart rate and longer RR interval duration
[10]; male and female dogs, 1 mg/kg PO, QD, 1 mg/kg
  adverse effects: decreased food consumption, lower body weights, and adverse intestinal microscopic findings related to mucosal epithelial cell loss; also recorded: decreased food consumption, lower body weights, and adverse intestinal (colon, ileum, and/or jejunum) microscopic findings related to mucosal epithelial cell loss
[10]; scaled by body surface area from dogs (divided by 1.8)
  human equivalent dose (HED): 0.3 mg/kg/day
Plasma DHO [11]; bootstrap point estimate
  IC50: 0.08 µM
  Kout: 70 h⁻¹
  gamma: 1.86
Plasma DHO [11]; model estimate (RSE%)
  Kout: 52 (11.4) /h
  gamma: 1.9 (1.6)
Plasma DHO [11]; plasma HOSU-53 concentration, inhibition of DHO degradation, model estimate (RSE%)
  IC50: 0.1 µM
[12]; male and female rats, 5 mg/kg PO, QD
  adverse effects: decreased lymphoid cellularity in the thymus, mild-to-moderate decreases in lymphocyte counts, and lower thymus weights
[12]; rats
  HNSTD or STD10: 5 mg/kg/day
[12]; rats, PO, QD, 28-day GLP
  NOAEL: 2.5 mg/kg
[12]; rats, preclinical toxicokinetic data
  maximum DHO concentration with no toxicity: ~ 2870 ng/mL
[12]; scaled by body surface area from rats (divided by 6.2)
  human equivalent dose (HED): 0.8 mg/kg/day
Plasma DHO [13]
  AUCtau,ss of DHO at which optimal efficacy is expected: around 300 µM·h
